What was measured:
Assay in all cases: relative viability (nuclei count vs DMSO), 5 days (fraction); higher = more cells survive
[1] = compound: CC[C@@H](C)CNCC(=O)N1CCC2=C([C@@H]1COC3=CC=CC(=C3)C)C=CS2 [RU-SKI 43] + CC(=O)Nc1cccc(-n2c(=O)n(C3CC3)c(=O)c3c(Nc4ccc(I)cc4F)n(C)c(=O)c(C)c32)c1 [Trametinib] (partner 0.02 µM)
How it was run: (§1)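 Lung cancer cell lines in 1536-well plates got either a single drug or a fixed anchor-drug dose together with five library-drug doses (not always all listed) in √10 steps, by pin tool, on the day after seeding. Nuclei were counted after 5 days, and relative viability is the treated-to-vehicle ratio of nuclei counts. Values are medians of duplicate plates.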

[2] = compound: CC[C@@H](C)CNCC(=O)N1CCC2=C([C@@H]1COC3=CC=CC(=C3)C)C=CS2 [RU-SKI 43] + C[C@@H](Oc1cc(-c2cnn(C3CCNCC3)c2)cnc1N)c1c(Cl)ccc(F)c1Cl [Crizotinib] (partner 1 µM)
How it was run: as §1

[3] = compound: CCc1c2c(nc3ccc(OC(=O)N4CCC(N5CCCCC5)CC4)cc13)-c1cc3c(c(=O)n1C2)COC(=O)[C@]3(O)CC [Irinotecan] + O=C(c1cc(Cc2n[nH]c(=O)c3ccccc23)ccc1F)N1CCN(C(=O)C2CC2)CC1 [Olaparib] (partner 8 µM)
How it was run: as §1

[4] = compound: CCc1c2c(nc3ccc(OC(=O)N4CCC(N5CCCCC5)CC4)cc13)-c1cc3c(c(=O)n1C2)COC(=O)[C@]3(O)CC [Irinotecan] + CS(=O)(=O)N1CCN(Cc2cc3nc(-c4cccc5[nH]ncc45)nc(N4CCOCC4)c3s2)CC1 [Pictilisib] (partner 1 µM)
How it was run: as §1

| Cell Line | relative viability ([1]; first compound 0.1 µM) | relative viability ([1]; first compound 0.3162 µM) | relative viability ([1]; first compound 1 µM) | relative viability ([1]; first compound 3.162 µM) | relative viability ([1]; first compound 10 µM) | relative viability ([2]; first compound 0.1 µM) | relative viability ([2]; first compound 0.3162 µM) | relative viability ([2]; first compound 1 µM) | relative viability ([2]; first compound 3.162 µM) | relative viability ([2]; first compound 10 µM) | relative viability ([3]; first compound 0.6325 µM) | relative viability ([3]; first compound 2 µM) | relative viability ([3]; first compound 6.325 µM) | relative viability ([3]; first compound 20 µM) | relative viability ([4]; first compound 0.6325 µM) | relative viability ([4]; first compound 2 µM) | relative viability ([4]; first compound 6.325 µM) | relative viability ([4]; first compound 20 µM) |
| --- | --- | --- | --- | --- | --- | --- | --- | --- | --- | --- | --- | --- | --- | --- | --- | --- | --- | --- |
| NCI-H322M | 0.492 | 0.553 | 0.534 | 0.565 | 0.553 | 1.19 | 1.04 | 0.941 | 0.979 | 0.733 | 0.135 | 0.642 | 0.538 | 0.235 | 0.532 | 0.507 | 0.344 | 0.338 |
| NCI-H358 | 0.125 | 0.138 | 0.181 | 0.139 | 0.124 | 0.604 | 0.484 | 0.512 | 0.578 | 0.35 | 0.215 | 0.286 | 0.158 | 0.109 | 0.265 | 0.387 | 0.282 | 0.171 |
| NCI-H1993 | 0.474 | 0.514 | 0.615 | 0.579 | 0.694 | 0.839 | 0.882 | 0.84 | 0.945 | 0.758 | – | 0.601 | 0.552 | 0.585 | 0.695 | 0.816 | 0.628 | 0.443 |
| CAL-12T | 0.306 | 0.242 | 0.316 | 0.259 | 0.351 | 0.494 | 0.747 | 0.652 | 0.896 | 0.653 | 0.494 | 0.44 | 0.288 | 0.297 | 0.4 | 0.396 | 0.443 | 0.327 |
| ChaGo-K-1 | 0.921 | 1.01 | 0.899 | 0.941 | 0.906 | 1.15 | 1.27 | 1.26 | 1.17 | 0.951 | 0.223 | 0.267 | 0.245 | 0.221 | – | 0.645 | 0.523 | 0.161 |
| COR-L23 | 0.611 | 0.598 | 0.672 | 0.577 | 0.423 | 0.752 | 0.598 | 0.736 | 0.667 | 0.492 | 0.162 | 0.215 | 0.191 | 0.0964 | 0.338 | 0.363 | 0.228 | 0.0867 |
| NCI-H2347 | 0.293 | 0.275 | 0.388 | 0.289 | 0.302 | 0.745 | 0.568 | 0.778 | 0.67 | 0.735 | 0.471 | 0.491 | 0.379 | 0.555 | 0.542 | 0.355 | 0.36 | 0.461 |
| LU99A | 0.561 | 0.65 | 0.595 | 0.553 | 0.489 | 0.542 | 0.565 | 0.595 | 0.6 | 0.469 | 0.126 | 0.126 | 0.119 | 0.15 | 0.206 | 0.211 | 0.206 | 0.235 |
| COR-L 105 | 0.404 | 0.334 | 0.41 | 0.414 | 0.397 | 0.682 | 0.697 | 0.858 | 0.712 | 0.438 | 0.644 | 0.513 | 0.552 | 0.425 | 0.309 | 0.515 | 0.411 | 0.231 |
| PC-3 [JPC-3] | 0.63 | 0.523 | 0.79 | 0.662 | 0.62 | 0.918 | 1.14 | 0.998 | 0.922 | 0.963 | 0.766 | 0.908 | 0.448 | 0.221 | 0.309 | 0.535 | 0.315 | 0.344 |
| NCI-H2009 | 0.28 | 0.295 | 0.291 | 0.313 | 0.244 | 1.07 | 1.06 | 1.06 | 1.03 | 0.905 | 0.508 | 0.287 | 0.194 | 0.128 | 0.342 | 0.515 | 0.232 | 0.0786 |
| HCC-366 | 0.34 | 0.253 | 0.311 | 0.333 | 0.212 | 0.454 | 0.392 | 0.548 | 0.486 | 0.27 | 0.206 | 0.15 | 0.0823 | 0.0649 | 0.181 | 0.142 | 0.0733 | 0.0469 |
| HARA | 0.507 | 0.806 | 1.02 | 0.936 | 0.561 | 1.16 | 0.971 | 1.08 | 1.18 | 0.975 | 0.466 | 0.405 | 0.2 | 0.262 | 0.189 | 0.104 | 0.161 | 0.0982 |
| NCI-H1792 | 0.36 | 0.53 | 0.486 | 0.327 | 0.362 | 1.09 | 1.53 | 1.21 | 1 | 0.921 | 0.332 | 0.327 | 0.198 | 0.298 | 0.281 | 0.199 | 0.106 | 0.11 |
| HCC-827 | 0.501 | 0.52 | 0.545 | 0.574 | 0.46 | 0.956 | 1.01 | 0.987 | 0.916 | 0.602 | 0.379 | 0.236 | 0.212 | 0.165 | 0.878 | 0.59 | 0.548 | 0.388 |
| LXF-289 | 0.682 | 0.743 | 0.728 | 0.66 | 0.66 | 0.815 | 0.784 | 0.806 | 0.83 | 0.736 | 0.211 | 0.215 | 0.162 | 0.158 | 0.745 | 0.7 | 0.206 | 0.158 |
| NCI-H460 | 0.224 | 0.2 | 0.141 | 0.197 | 0.0732 | 0.869 | 1.2 | 0.91 | 1.01 | 0.551 | – | 0.214 | 0.0942 | 0.125 | 0.328 | 0.314 | 0.0912 | 0.0812 |

Source: the supplement of paper PMC10307832
